# The source made the active and inactive calls. No cut-off for these calls is given here.
# Assays:
# A549 = test: Antiproliferative activity against human A549 cells after 72 hrs by MTT assay; assay type: functional, cell-based; conditions: A549, 72 h
# HT-29 [1] = test: Antiproliferative activity against human HT-29 cells after 72 hrs by MTT assay; assay type: functional, cell-based; conditions: HT-29, 72 h
# MDA-MB-231 = test: Antiproliferative activity against human MDA-MB-231 cells after 72 hrs by MTT assay; assay type: functional, cell-based; conditions: MDA-MB-231, 72 h
# A549/CDDP = test: Antiproliferative activity against human A549/CDDP cells after 72 hrs by MTT assay; assay type: functional, cell-based
# MCF7 = test: Antiproliferative activity against human MCF7 cells after 72 hrs by MTT assay; assay type: functional, cell-based; conditions: MCF7, 72 h
# [2] = Antiproliferative activity against human MCF7/DX cells after 72 hrs by MTT assay; assay type: functional, cell-based
# HT-29 [3] = test: Antiproliferative activity against human HT-29 cells after 72 hrs by IncuCyte live-cell imaging assay; assay type: functional, cell-based
# HT-29 [4] = test: Antiproliferative activity against human HT-29 cells assessed as cell confluence level at 10 ug/ml after 72 hrs by IncuCyte live-cell imaging assay (reference value: 87.5%); assay type: functional
# HT-29 [5] = test: Antiproliferative activity against human HT-29 cells assessed as cell confluence level at 0.37 ug/ml after 0 to 12 hrs by IncuCyte live-cell imaging assay (reference value: 87.5%); assay type: functional
# HT-29 [6] = test: Cytotoxicity against human HT-29 cells assessed as increase in dead cells after 72 hrs by yoyo-1 dye-based fluorescence assay; assay type: functional, cell-based
# HT-29 [7] = test: Cytotoxicity against human HT-29 cells assessed as increase in dead cells at 3.33 ug/mL up to 72 hrs by yoyo-1 dye-based fluorescence assay; assay type: functional, cell-based
# HT-29 [8] = test: Cytotoxicity against human HT-29 cells assessed as increase in dead cells at 0.01 ug/mL after 72 hrs by yoyo-1 dye-based fluorescence assay; assay type: functional, cell-based
# HT-29 [9] = test: Induction of apoptosis in human HT-29 cells assessed as early apoptotic cells at 0.1 ug/mL after 72 hrs by Annexin V-FITC/propidium iodide staining-based flow cytometric analysis (reference value: 0%); assay type: functional
# HT-29 [10] = test: Induction of apoptosis in human HT-29 cells assessed as late apoptotic cells at 0.1 ug/mL after 72 hrs by Annexin V-FITC/propidium iodide staining-based flow cytometric analysis (reference value: 0.1%); assay type: functional
# HT-29 [11] = test: Induction of apoptosis in human HT-29 cells assessed as early apoptotic cells at 0.3 ug/mL after 72 hrs by Annexin V-FITC/propidium iodide staining-based flow cytometric analysis (reference value: 0%); assay type: functional
# HT-29 [12] = test: Induction of apoptosis in human HT-29 cells assessed as late apoptotic cells at 0.3 ug/mL after 72 hrs by Annexin V-FITC/propidium iodide staining-based flow cytometric analysis (reference value: 0.1%); assay type: functional
# HT-29 [13] = test: Induction of apoptosis in human HT-29 cells assessed as early apoptotic cells at 1 ug/mL after 72 hrs by Annexin V-FITC/propidium iodide staining-based flow cytometric analysis (reference value: 0%); assay type: functional
# HT-29 [14] = test: Induction of apoptosis in human HT-29 cells assessed as late apoptotic cells at 1 ug/mL after 72 hrs by Annexin V-FITC/propidium iodide staining-based flow cytometric analysis (reference value: 0.1%); assay type: functional
# HT-29 [15] = test: Induction of apoptosis in human HT-29 cells assessed as early apoptotic cells at 3 ug/mL after 72 hrs by Annexin V-FITC/propidium iodide staining-based flow cytometric analysis (reference value: 0%); assay type: functional
# HT-29 [16] = test: Induction of apoptosis in human HT-29 cells assessed as late apoptotic cells at 3 ug/mL after 72 hrs by Annexin V-FITC/propidium iodide staining-based flow cytometric analysis (reference value: 0.1%); assay type: functional
# HT-29 [17] = test: Induction of apoptosis in human HT-29 cells after 72 hrs by Annexin V-FITC/propidium iodide staining-based flow cytometric analysis; assay type: functional, cell-based
# HT-29 [18] = test: Antimigratory activity against human HT-29 cells at 3.33 ug/mL after 48 to 72 hrs by wound healing assay; assay type: functional, cell-based
# [19] = biological target: T1, Hepatocyte growth factor receptor (Homo sapiens, UniProt P08581); test: Inhibition of c-Met (unknown origin) using FAM-labelled peptide and ATP incubated for 10 mins by mobility shift assay
# [20] = biological target: Macrophage-stimulating protein receptor (Homo sapiens, UniProt Q04912); test: Inhibition of Ron (unknown origin) using FAM-labelled peptide and ATP incubated for 10 mins by mobility shift assay
# [21] = biological target: Mast/stem cell growth factor receptor Kit (Homo sapiens, UniProt P10721); test: Inhibition of c-Kit (unknown origin) using FAM-labelled peptide and ATP incubated for 10 mins by mobility shift assay
# [22] = biological target: Vascular endothelial growth factor receptor 2 (Homo sapiens, UniProt P35968); test: Inhibition of KDR (unknown origin) using FAM-labelled peptide and ATP incubated for 10 mins by mobility shift assay
# [23] = biological target: Receptor tyrosine-protein kinase erbB-2 (Homo sapiens, UniProt P04626); test: Inhibition of HER-2 (unknown origin) using FAM-labelled peptide and ATP incubated for 10 mins by mobility shift assay
# [24] = biological target: ALK tyrosine kinase receptor (Homo sapiens, UniProt Q9UM73); test: Inhibition of ALK (unknown origin) using FAM-labelled peptide and ATP incubated for 10 mins by mobility shift assay
# [25] = biological target: Proto-oncogene tyrosine-protein kinase Src (Homo sapiens, UniProt P12931); test: Inhibition of c-Src (unknown origin) using FAM-labelled peptide and ATP incubated for 10 mins by mobility shift assay
# [26] = biological target: Insulin-like growth factor 1 receptor (Homo sapiens, UniProt P08069); test: Inhibition of IGF-1R (unknown origin) using FAM-labelled peptide and ATP incubated for 10 mins by mobility shift assay
# [27] = biological target: Epidermal growth factor receptor (Homo sapiens, UniProt P00533); test: Inhibition of EGFR (unknown origin) using FAM-labelled peptide and ATP incubated for 10 mins by mobility shift assay
# [28] = biological target: T2, Tyrosine-protein kinase receptor UFO (Homo sapiens, UniProt P30530); test: Inhibition of AXL (unknown origin) using FAM-labelled peptide and ATP incubated for 10 mins by mobility shift assay
# T2 sequence (P30530 whole entry): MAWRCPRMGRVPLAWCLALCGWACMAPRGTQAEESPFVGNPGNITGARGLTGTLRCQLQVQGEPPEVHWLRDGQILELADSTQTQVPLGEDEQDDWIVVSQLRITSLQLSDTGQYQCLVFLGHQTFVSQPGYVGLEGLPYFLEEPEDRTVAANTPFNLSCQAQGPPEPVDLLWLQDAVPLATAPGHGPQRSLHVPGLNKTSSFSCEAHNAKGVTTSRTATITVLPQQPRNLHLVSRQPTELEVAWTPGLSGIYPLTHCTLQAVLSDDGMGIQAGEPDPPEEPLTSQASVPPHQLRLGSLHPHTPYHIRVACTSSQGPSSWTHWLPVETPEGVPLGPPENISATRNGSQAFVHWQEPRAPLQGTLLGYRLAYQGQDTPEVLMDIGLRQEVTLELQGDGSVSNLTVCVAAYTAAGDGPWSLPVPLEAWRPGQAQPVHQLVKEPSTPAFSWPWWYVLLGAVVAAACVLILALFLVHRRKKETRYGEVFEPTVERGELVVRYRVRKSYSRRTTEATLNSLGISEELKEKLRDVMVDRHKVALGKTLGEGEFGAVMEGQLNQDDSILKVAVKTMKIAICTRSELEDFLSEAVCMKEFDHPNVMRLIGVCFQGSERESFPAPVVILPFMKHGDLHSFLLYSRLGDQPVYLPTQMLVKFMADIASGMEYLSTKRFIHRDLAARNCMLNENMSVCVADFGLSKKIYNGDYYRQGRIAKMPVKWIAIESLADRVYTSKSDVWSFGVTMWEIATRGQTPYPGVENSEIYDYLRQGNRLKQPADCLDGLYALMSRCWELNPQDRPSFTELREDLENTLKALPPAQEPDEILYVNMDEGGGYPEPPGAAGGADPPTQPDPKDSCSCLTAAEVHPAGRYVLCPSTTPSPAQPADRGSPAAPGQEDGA
# [29] = biological target: T1, Hepatocyte growth factor receptor; test: Inhibition of c-Met phosphorylation in human HT-29 cells at 3 ug/mL after 72 hrs by Western blot analysis; assay type: cell-based
# [30] = biological target: T1, Hepatocyte growth factor receptor; test: Inhibition of c-Met in human HT-29 cells assessed as decrease in Akt phosphorylation at 3 ug/mL after 72 hrs by Western blot analysis; assay type: cell-based
# [31] = biological target: T1, Hepatocyte growth factor receptor; test: Inhibition of c-Met in human HT-29 cells assessed as decrease in ERK1/2 phosphorylation at 3 ug/mL after 72 hrs by Western blot analysis; assay type: cell-based
# FHC = test: Cytotoxicity against human FHC cells after 72 hrs by MTT assay; assay type: cell-based
# [32] = Selectivity index, ratio of IC50 for human FHC cells to IC50 for human HT-29 cells; assay type: toxicity; conditions: FHC cells and HT-29 cells, read-out: Ratio IC50
# HT-29 [33] = test: Antimigratory activity against human HT-29 cells at <3.33 ug/mL after 48 to 72 hrs by wound healing assay; assay type: functional, cell-based
# T1 sequence (P08581 whole entry): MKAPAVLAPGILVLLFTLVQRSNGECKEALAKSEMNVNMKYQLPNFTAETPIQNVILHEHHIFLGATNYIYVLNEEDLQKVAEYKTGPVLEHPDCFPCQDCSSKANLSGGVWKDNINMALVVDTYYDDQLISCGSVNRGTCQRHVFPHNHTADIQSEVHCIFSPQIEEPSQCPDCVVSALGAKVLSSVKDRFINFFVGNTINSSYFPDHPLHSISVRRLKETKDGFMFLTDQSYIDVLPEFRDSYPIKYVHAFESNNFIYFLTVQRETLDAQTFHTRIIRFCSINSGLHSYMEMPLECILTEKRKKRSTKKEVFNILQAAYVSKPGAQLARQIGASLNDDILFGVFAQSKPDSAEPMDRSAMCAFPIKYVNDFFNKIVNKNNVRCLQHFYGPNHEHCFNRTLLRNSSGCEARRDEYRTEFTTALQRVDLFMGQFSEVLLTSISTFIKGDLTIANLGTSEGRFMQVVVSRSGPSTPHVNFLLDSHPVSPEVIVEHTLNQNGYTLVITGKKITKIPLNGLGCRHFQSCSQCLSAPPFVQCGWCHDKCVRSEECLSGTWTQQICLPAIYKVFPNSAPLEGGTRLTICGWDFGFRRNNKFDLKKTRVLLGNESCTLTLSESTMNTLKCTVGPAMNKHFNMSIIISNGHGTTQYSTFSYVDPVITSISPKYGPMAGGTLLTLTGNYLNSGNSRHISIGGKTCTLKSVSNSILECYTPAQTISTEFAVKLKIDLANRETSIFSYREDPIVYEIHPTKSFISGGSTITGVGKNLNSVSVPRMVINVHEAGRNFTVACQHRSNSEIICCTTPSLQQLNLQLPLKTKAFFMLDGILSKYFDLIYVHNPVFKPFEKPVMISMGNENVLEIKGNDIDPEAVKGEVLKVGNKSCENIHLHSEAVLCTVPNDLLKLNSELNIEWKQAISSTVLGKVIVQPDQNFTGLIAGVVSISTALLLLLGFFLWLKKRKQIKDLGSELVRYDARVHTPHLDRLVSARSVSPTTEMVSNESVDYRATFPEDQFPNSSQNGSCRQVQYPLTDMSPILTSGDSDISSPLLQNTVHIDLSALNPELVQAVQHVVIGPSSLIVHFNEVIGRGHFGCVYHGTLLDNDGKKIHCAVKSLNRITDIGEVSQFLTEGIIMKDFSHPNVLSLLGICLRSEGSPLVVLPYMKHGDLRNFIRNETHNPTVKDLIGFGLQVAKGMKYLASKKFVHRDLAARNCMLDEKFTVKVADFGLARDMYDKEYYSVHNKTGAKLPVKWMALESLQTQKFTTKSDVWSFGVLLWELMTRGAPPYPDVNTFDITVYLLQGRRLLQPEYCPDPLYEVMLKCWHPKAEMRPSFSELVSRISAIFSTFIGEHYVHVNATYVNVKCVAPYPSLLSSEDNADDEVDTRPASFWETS
# Vascular endothelial growth factor receptor 2, sequence (P35968 whole entry): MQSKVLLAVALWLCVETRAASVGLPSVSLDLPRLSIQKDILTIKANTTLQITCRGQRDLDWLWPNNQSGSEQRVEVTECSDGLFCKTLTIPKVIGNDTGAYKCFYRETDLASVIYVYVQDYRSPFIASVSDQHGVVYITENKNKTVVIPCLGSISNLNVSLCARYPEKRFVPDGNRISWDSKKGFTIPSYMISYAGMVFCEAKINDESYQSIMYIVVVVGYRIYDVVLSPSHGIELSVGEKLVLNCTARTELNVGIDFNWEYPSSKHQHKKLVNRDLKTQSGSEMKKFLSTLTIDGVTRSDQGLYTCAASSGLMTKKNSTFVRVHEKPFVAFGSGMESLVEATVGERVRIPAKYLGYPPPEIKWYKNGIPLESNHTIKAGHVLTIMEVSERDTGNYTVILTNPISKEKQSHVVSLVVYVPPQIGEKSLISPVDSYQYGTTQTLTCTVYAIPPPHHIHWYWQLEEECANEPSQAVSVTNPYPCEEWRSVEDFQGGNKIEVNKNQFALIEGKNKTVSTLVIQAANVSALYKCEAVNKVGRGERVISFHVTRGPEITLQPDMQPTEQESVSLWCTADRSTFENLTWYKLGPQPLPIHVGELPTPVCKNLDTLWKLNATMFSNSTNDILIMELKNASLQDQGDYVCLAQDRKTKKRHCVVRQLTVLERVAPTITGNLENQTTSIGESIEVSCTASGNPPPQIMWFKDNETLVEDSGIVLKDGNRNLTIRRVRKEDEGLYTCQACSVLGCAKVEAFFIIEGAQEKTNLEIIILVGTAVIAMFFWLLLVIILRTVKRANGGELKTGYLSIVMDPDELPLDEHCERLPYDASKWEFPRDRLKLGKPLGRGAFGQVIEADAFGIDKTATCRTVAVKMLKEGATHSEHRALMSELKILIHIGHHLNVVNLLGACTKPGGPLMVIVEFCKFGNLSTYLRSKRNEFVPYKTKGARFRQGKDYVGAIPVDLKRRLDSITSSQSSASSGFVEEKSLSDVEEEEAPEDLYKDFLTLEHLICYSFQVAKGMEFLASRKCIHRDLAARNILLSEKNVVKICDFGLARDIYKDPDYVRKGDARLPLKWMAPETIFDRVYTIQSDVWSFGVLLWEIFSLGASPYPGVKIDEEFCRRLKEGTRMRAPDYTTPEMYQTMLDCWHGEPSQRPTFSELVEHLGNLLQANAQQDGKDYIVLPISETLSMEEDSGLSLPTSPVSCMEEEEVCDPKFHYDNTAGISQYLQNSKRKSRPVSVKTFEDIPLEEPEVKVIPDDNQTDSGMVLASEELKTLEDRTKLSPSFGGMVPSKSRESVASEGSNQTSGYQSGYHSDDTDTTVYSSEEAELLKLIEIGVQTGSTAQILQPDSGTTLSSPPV
# Mast/stem cell growth factor receptor Kit, sequence (P10721 whole entry): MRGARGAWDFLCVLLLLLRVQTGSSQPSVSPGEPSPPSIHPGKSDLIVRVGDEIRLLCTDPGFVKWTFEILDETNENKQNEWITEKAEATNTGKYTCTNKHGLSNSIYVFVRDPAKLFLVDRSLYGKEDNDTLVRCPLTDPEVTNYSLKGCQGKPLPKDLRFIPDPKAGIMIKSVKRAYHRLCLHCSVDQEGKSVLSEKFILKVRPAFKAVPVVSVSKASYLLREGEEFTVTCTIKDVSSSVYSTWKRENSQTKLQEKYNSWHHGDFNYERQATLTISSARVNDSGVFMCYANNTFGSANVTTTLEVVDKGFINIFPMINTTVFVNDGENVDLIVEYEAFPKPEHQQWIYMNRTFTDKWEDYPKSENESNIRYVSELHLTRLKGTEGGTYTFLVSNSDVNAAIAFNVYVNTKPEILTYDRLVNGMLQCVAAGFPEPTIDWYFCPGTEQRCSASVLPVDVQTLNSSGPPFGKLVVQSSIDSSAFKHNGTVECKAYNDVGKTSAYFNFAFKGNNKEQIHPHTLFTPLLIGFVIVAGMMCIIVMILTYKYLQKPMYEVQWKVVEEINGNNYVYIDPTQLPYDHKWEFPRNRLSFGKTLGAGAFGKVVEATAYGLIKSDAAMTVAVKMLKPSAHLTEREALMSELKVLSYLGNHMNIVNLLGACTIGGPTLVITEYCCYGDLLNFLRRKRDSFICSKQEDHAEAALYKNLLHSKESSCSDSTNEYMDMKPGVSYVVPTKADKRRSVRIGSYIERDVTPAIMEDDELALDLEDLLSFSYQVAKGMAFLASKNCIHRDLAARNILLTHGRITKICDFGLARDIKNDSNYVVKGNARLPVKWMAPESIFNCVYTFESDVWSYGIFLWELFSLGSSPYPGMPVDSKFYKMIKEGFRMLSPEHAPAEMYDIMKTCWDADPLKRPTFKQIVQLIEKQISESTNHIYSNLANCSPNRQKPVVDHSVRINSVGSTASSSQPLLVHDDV
# Receptor tyrosine-protein kinase erbB-2, sequence (P04626 whole entry): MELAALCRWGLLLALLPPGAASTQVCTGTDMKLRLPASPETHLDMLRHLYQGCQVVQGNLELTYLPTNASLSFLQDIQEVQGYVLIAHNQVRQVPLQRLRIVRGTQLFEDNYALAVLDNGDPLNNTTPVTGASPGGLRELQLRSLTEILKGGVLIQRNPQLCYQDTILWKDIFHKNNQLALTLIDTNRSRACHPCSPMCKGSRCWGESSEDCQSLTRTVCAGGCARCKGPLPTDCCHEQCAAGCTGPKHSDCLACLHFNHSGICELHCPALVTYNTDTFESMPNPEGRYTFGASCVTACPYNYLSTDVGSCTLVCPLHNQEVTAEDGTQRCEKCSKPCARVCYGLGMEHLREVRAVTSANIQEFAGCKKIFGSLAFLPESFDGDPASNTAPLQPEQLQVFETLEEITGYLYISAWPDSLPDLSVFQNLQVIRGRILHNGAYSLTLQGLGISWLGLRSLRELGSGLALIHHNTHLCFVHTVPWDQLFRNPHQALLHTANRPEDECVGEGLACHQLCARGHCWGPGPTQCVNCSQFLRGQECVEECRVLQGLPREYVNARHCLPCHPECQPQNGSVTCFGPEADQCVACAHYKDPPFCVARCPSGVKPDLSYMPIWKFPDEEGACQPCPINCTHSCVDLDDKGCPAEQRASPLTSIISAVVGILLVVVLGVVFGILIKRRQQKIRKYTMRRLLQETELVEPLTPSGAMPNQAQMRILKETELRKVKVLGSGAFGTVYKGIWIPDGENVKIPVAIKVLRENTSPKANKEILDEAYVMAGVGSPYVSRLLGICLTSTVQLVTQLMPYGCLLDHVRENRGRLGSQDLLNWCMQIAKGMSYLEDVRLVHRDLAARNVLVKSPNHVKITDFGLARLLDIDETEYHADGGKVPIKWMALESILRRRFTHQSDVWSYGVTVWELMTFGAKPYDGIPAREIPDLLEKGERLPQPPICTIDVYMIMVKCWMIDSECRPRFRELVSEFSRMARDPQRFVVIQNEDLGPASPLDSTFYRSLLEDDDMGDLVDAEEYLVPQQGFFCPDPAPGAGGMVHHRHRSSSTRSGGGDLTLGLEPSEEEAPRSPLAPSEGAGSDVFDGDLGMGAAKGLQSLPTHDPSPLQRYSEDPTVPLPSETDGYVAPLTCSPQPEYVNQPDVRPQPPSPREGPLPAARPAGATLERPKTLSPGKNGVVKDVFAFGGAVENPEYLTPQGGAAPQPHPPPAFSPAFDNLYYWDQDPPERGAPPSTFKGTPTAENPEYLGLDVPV
structure (smiles),measurement,setting,value
CCN1CCN(CCCOc2cc3nccc(Oc4c(F)cc(NC(=O)NN5C(=O)CSC5c5c(F)cccc5F)cc4F)c3cc2OC)CC1 (stereo not drawn),IC50,A549,350 nM
same,IC50,HT-29 [1],73 nM
same,IC50,MDA-MB-231,3100 nM
same,IC50,A549/CDDP,630 nM
same,IC50,MCF7,1500 nM
same,IC50,[2],3800 nM
same,Activity,HT-29 [3],Dose-dependent effect
same,Activity,HT-29 [4],24.3%
same,Activity,HT-29 [5],63.6%
same,Activity,HT-29 [6],Dose-dependent effect
same,Activity,HT-29 [7],Active
same,Activity,HT-29 [8],Active
same,Activity,HT-29 [9],17.4%
same,Activity,HT-29 [10],9.9%
same,Activity,HT-29 [11],55.1%
same,Activity,HT-29 [12],9.6%
same,Activity,HT-29 [13],70.2%
same,Activity,HT-29 [14],11%
same,Activity,HT-29 [15],74.5%
same,Activity,HT-29 [16],10.3%
same,Activity,HT-29 [17],Dose-dependent effect
same,Activity,HT-29 [18],Active
same,IC50,[19],15 nM
same,IC50,[20],2.9 nM
same,IC50,[21],64 nM
same,IC50,[22],850 nM
same,IC50,[23],> 10000 nM
same,IC50,[24],> 10000 nM
same,IC50,[25],240 nM
same,IC50,[26],2100 nM
same,IC50,[27],520 nM
same,IC50,[28],53 nM
same,inhibition,[29],Active
same,inhibition,[30],Active
same,inhibition,[31],Active
same,IC50,FHC,1180 nM
same,selectivity ratio,[32],16.2
same,Activity,HT-29 [33],inactive

# Source: ChEMBL document CHEMBL4330059, “Discovery of N1-(4-((7-(3-(4-ethylpiperazin-1-yl)propoxy)-6-methoxyquinolin-4-yl)oxy)-3,5-difluorophenyl)-N3-(2-(2,6-difluorophenyl)-4-oxothiazolidin-3-yl)urea as a multi-tyrosine kinase inhibitor for drug-sensitive and drug-resistant cancers treatment” (Eur J Med Chem, 2019)
